In patent US5958918A, “Substituted (sulfinic acid, sulfonic acid, sulfonylamino or sulfinylamino) N-[(aminominomethyl)phenylalkyl]-azaheterocyclylamide compounds” (Rhone-Poulenc Rorer Pharmaceuticals Inc., priority 1997, dated 1999):
Where a name gives a salt, the structure may show the parent alone.

Target: factor Xa (Homo sapiens, UniProt P00742)
Assay: Factor Xa inhibitor enzyme assay (purified enzyme, chromogenic peptide-p-nitroanilide substrate; apparent Ki by Cheng-Prusoff)
Type: biochemical
Method: Factor Xa Inhibitor: Enzyme Assay Methods
All enzyme assays are carried out at room temperature in 96-well microtiter plates using a final enzyme concentration of 1 nM. The concentrations of factor Xa and thrombin are determined by active site titration and the concentrations of all other enzymes are based on the protein concentration supplied by the manufacturer. […] Compound dilutions are added to wells containing buffer and enzyme and pre-equilibrated for between 5 and 30 minutes. […] Under these conditions, less than 10% of the substrate is utilized in all assays. […] The apparent Ki values are then determined according to the Cheng-Prusoff equation (IC50=Ki [1+[S]/Km]) assuming competitive inhibition kinetics.

Sequence of factor Xa (P00742 235-488 limits assumed): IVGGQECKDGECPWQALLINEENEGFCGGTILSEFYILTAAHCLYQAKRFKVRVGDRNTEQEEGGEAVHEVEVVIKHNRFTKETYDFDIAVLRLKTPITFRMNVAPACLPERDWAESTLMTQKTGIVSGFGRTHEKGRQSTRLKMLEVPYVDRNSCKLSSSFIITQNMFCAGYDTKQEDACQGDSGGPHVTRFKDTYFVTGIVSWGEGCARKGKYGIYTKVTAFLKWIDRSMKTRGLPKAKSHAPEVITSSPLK
Sequence of factor Xa (P00742 41-179 partner limits assumed): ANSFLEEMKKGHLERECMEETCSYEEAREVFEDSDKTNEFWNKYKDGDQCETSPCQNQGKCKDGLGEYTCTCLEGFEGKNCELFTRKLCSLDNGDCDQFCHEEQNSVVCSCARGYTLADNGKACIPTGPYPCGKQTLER

N=C(N)c1cccc(CN2CC[C@H](NS(=O)(=O)c3ccc(-c4ccccn4)s3)C2=O)c1 [Example 7, 5-Pyrid-2-ylthiophene-2-sulfonic acid {1-[3-(aminoiminomethyl)benzyl]-2-oxopyrrolidin-3-(S)-yl}amide trifluoroacetate]
Ki: 100 nM
